Values quoted from earlier work, collected in PubChem BioAssay AID1259409 (Chemical Carcinogenesis Research Information System (CCRIS), 2018).

Tested on: rodent chemically induced tumor inhibition, incidence and multiplicity
Test: CCRIS tumor inhibitor studies

## O=c1oc2c(O)c(O)cc3c(=O)oc4c(O)c(O)cc1c4c23
Carcinogen: BENZO[A]PYRENE, 50-32-8, Dose [Inhibitor]: 0, 2500 NMOL IN 200 µL ACETONE:METHANOL (45:55) ONCE APPLIED 5 MIN PRIOR TO CARCINOGEN DOSE (STUDY DURATION: 21 WK), Route [Inhibitor]: DERMAL, Species: MOUSE, Strain/Sex: CD-1/FEMALE, Target Tissue: Type of Lesion: SKIN: TUMOR, Dose [Carcinogen]: 50 NMOL IN ACETONE:DMSO (90:10) ONCE, Promoter: 12-O-TETRADECANOYLPHORBOL-13-ACETATE, 16561-29-8
  tumour outcome (control, treated, inhibition, significance): 55%, 33%, 40%, not significant
Carcinogen: BENZO[A]PYRENE, 50-32-8, Dose [Inhibitor]: 100 MG/KG ADMINISTERED 1 HR BEFORE AND 6, 24, AND 48 HR AFTER BENZO[A]PYRENE TREATMENT (STUDY DURATION: 6 MO), Route [Inhibitor]: INTRAPERITONEAL, Species: MOUSE, Strain/Sex: STRAIN-A/MALE, Target Tissue: Type of Lesion: LUNG: ADENOMA, Dose [Carcinogen]: 100 MG/KG ONCE, Promoter: NONE USED
  tumour outcome (control, treated, inhibition, significance): 18/18 (100%), 4/6 (67%), 33%, not significant
Carcinogen: BENZO[A]PYRENE, 50-32-8, Dose [Inhibitor]: 100 MG/KG ADMINISTERED 1 HR BEFORE AND 6, 24, AND 48 HR AFTER CARCINOGEN TREATMENT FOLLOWED BY 6 MO OBSERVATION PERIOD (, Route [Inhibitor]: INTRAPERITONEAL, Species: MOUSE, Strain/Sex: STRAIN-A/MALE, Target Tissue: Type of Lesion: LUNG: ADENOMA, Dose [Carcinogen]: 100 MG/KG ONCE, Promoter: NONE USED
  tumour outcome (control, treated, inhibition, significance): 18/18 (100%), 4/6 (67%), 33%, not significant
Carcinogen: BENZO[A]PYRENE, 50-32-8, Dose [Inhibitor]: 100 MG/KG STARTING 5 D BEFORE AND CONTINUING THROUGH 10 D AFTER CARCINOGEN TREATMENT (STUDY DURATION: 6 MO), Route [Inhibitor]: ORAL, Species: MOUSE, Strain/Sex: STRAIN-A/MALE, Target Tissue: Type of Lesion: LUNG: ADENOMA, Dose [Carcinogen]: 100 MG/KG ONCE, Promoter: NONE USED
  tumour outcome (control, treated, inhibition, significance): 18/18 (100%), 19/19 (100%), 0%, not significant
Carcinogen: BENZO[A]PYRENE, 50-32-8, Dose [Inhibitor]: 100 MG/KG/D IN DIET STARTING 5 D BEFORE AND CONTINUING TO 10 D AFTER CARCINOGEN TREATMENT FOLLOWED BY 6 MO OBSERVATION P, Route [Inhibitor]: ORAL, Species: MOUSE, Strain/Sex: STRAIN-A/MALE, Target Tissue: Type of Lesion: LUNG: ADENOMA, Dose [Carcinogen]: 100 MG/KG ONCE, Promoter: NONE USED
  tumour outcome (control, treated, inhibition, significance): 18/18 (100%), 19/19 (100%), 0%, not significant
Carcinogen: DIBENZO[A,H]PYRENE, 189-64-0, Dose [Inhibitor]: 0, 300 NMOL (TOTAL DOSE) APPLIED 10 MIN PRIOR TO CARCINOGEN DOSE INJECTED AS 1/7, 2/7, AND 4/7 OF THE TOTAL ON DAYS 1, 8, Route [Inhibitor]: INTRAPERITONEAL, Species: MOUSE, Strain/Sex: ICR/MALE,FEMALE, Target Tissue: Type of Lesion: LUNG: TUMOR, Dose [Carcinogen]: 50 NMOL (TOTAL DOSE) INJECTED IN DOSES OF 1/7, 2/7, AND 4/7 ON DAYS 1, 8, AND 15 OF LIFE, RESPECTIVELY, Promoter: NONE USED
  tumour outcome (control, treated, inhibition, significance): 95%, 100%, -5%, not significant
Carcinogen: DIETHYLNITROSAMINE, 55-18-5, Dose [Inhibitor]: 0, 900 MG/KG BW BY INTRAPERITONEAL INJECTION ON DAYS 13, 14 AND 15 OF AGE THEN 6 G/KG DIET FROM 21 TO 161 DAYS OF AGE (S, Route [Inhibitor]: INTRAPERITONEAL, ORAL, Species: MOUSE, Strain/Sex: C3H/MALE, Target Tissue: Type of Lesion: LIVER: ADENOMA, Dose [Carcinogen]: 4 MG/KG IN TRICAPRYLIN ONCE ON DAY 15 OF AGE, Promoter: NONE USED
  tumour outcome (control, treated, inhibition, significance): 100%, 100%, 0%, not significant
Carcinogen: DIETHYLNITROSAMINE, 55-18-5, N-METHYLNITROSOUREA, 684-93-5, 1,2-DIMETHYLHYDRAZINE, 540-73-8, N-BUTYL-N-(4-HYDROXYB, Carcinogen: DIETHYLNITROSAMINE, 55-18-5, N-METHYLNITROSOUREA, 684-93-5, 1,2-DIMETHYLHYDRAZINE, 540-73-8, N-BUTYL-N-(4-HYDROXYB, Dose [Inhibitor]: 0, 1% IN DIET FOR 4 WK BEGINNING 1 DAY PRIOR TO CARCINOGEN TREATMENT (STUDY DURATION: 36 WK), Route [Inhibitor]: ORAL, Species: RAT, Strain/Sex: F344/MALE, Target Tissue: Type of Lesion: KIDNEY: ADENOMA, Dose [Carcinogen]: 100 MG/KG DEN ONCE, 20 MG/KG MNU 4 TIMES, 40 MG/KG DMH 4 TIMES, 0.05% BBN IN DRINKING WATER FOR 2 WK, 0.1% DHPN IN D, Dose [Carcinogen]: 100 MG/KG DEN ONCE, 20 MG/KG MNU 4 TIMES, 40 MG/KG DMH 4 TIMES, 0.05% BBN IN DRINKING WATER FOR 2 WK, 0.1% DHPN IN D, Promoter: NONE USED
  tumour outcome (control, treated, inhibition, significance): 4/14 (29%), 1/12 (8%), 72%, not significant
Carcinogen: DIETHYLNITROSAMINE, 55-18-5, N-METHYLNITROSOUREA, 684-93-5, 1,2-DIMETHYLHYDRAZINE, 540-73-8, N-BUTYL-N-(4-HYDROXYB, Carcinogen: DIETHYLNITROSAMINE, 55-18-5, N-METHYLNITROSOUREA, 684-93-5, 1,2-DIMETHYLHYDRAZINE, 540-73-8, N-BUTYL-N-(4-HYDROXYB, Dose [Inhibitor]: 0, 1% IN DIET FOR 4 WK BEGINNING 1 DAY PRIOR TO CARCINOGEN TREATMENT (STUDY DURATION: 36 WK), Route [Inhibitor]: ORAL, Species: RAT, Strain/Sex: F344/MALE, Target Tissue: Type of Lesion: KIDNEY: NEPHROBLASTOMA, Dose [Carcinogen]: 100 MG/KG DEN ONCE, 20 MG/KG MNU 4 TIMES, 40 MG/KG DMH 4 TIMES, 0.05% BBN IN DRINKING WATER FOR 2 WK, 0.1% DHPN IN D, Dose [Carcinogen]: 100 MG/KG DEN ONCE, 20 MG/KG MNU 4 TIMES, 40 MG/KG DMH 4 TIMES, 0.05% BBN IN DRINKING WATER FOR 2 WK, 0.1% DHPN IN D, Promoter: NONE USED
  tumour outcome (control, treated, inhibition, significance): 7/14 (50%), 5/12 (42%), 16%, not significant
Carcinogen: DIETHYLNITROSAMINE, 55-18-5, N-METHYLNITROSOUREA, 684-93-5, 1,2-DIMETHYLHYDRAZINE, 540-73-8, N-BUTYL-N-(4-HYDROXYB, Carcinogen: DIETHYLNITROSAMINE, 55-18-5, N-METHYLNITROSOUREA, 684-93-5, 1,2-DIMETHYLHYDRAZINE, 540-73-8, N-BUTYL-N-(4-HYDROXYB, Dose [Inhibitor]: 0, 1% IN DIET FOR 4 WK BEGINNING 1 DAY PRIOR TO CARCINOGEN TREATMENT (STUDY DURATION: 36 WK), Route [Inhibitor]: ORAL, Species: RAT, Strain/Sex: F344/MALE, Target Tissue: Type of Lesion: LARGE INTESTINE: ADENOMA, Dose [Carcinogen]: 100 MG/KG DEN ONCE, 20 MG/KG MNU 4 TIMES, 40 MG/KG DMH 4 TIMES, 0.05% BBN IN DRINKING WATER FOR 2 WK, 0.1% DHPN IN D, Dose [Carcinogen]: 100 MG/KG DEN ONCE, 20 MG/KG MNU 4 TIMES, 40 MG/KG DMH 4 TIMES, 0.05% BBN IN DRINKING WATER FOR 2 WK, 0.1% DHPN IN D, Promoter: NONE USED
  tumour outcome (control, treated, inhibition, significance): 7/14 (50%), 5/12 (42%), 16%, not significant
Carcinogen: DIETHYLNITROSAMINE, 55-18-5, N-METHYLNITROSOUREA, 684-93-5, 1,2-DIMETHYLHYDRAZINE, 540-73-8, N-BUTYL-N-(4-HYDROXYB, Carcinogen: DIETHYLNITROSAMINE, 55-18-5, N-METHYLNITROSOUREA, 684-93-5, 1,2-DIMETHYLHYDRAZINE, 540-73-8, N-BUTYL-N-(4-HYDROXYB, Dose [Inhibitor]: 0, 1% IN DIET FOR 4 WK BEGINNING 1 DAY PRIOR TO CARCINOGEN TREATMENT (STUDY DURATION: 36 WK), Route [Inhibitor]: ORAL, Species: RAT, Strain/Sex: F344/MALE, Target Tissue: Type of Lesion: LARGE INTESTINE: CARCINOMA, Dose [Carcinogen]: 100 MG/KG DEN ONCE, 20 MG/KG MNU 4 TIMES, 40 MG/KG DMH 4 TIMES, 0.05% BBN IN DRINKING WATER FOR 2 WK, 0.1% DHPN IN D, Dose [Carcinogen]: 100 MG/KG DEN ONCE, 20 MG/KG MNU 4 TIMES, 40 MG/KG DMH 4 TIMES, 0.05% BBN IN DRINKING WATER FOR 2 WK, 0.1% DHPN IN D, Promoter: NONE USED
  tumour outcome (control, treated, inhibition, significance): 3/14 (21%), 4/12 (33%), -57%, not significant
Carcinogen: DIETHYLNITROSAMINE, 55-18-5, N-METHYLNITROSOUREA, 684-93-5, 1,2-DIMETHYLHYDRAZINE, 540-73-8, N-BUTYL-N-(4-HYDROXYB, Carcinogen: DIETHYLNITROSAMINE, 55-18-5, N-METHYLNITROSOUREA, 684-93-5, 1,2-DIMETHYLHYDRAZINE, 540-73-8, N-BUTYL-N-(4-HYDROXYB, Dose [Inhibitor]: 0, 1% IN DIET FOR 4 WK BEGINNING 1 DAY PRIOR TO CARCINOGEN TREATMENT (STUDY DURATION: 36 WK), Route [Inhibitor]: ORAL, Species: RAT, Strain/Sex: F344/MALE, Target Tissue: Type of Lesion: SMALL INTESTINE: ADENOMA, Dose [Carcinogen]: 100 MG/KG DEN ONCE, 20 MG/KG MNU 4 TIMES, 40 MG/KG DMH 4 TIMES, 0.05% BBN IN DRINKING WATER FOR 2 WK, 0.1% DHPN IN D, Dose [Carcinogen]: 100 MG/KG DEN ONCE, 20 MG/KG MNU 4 TIMES, 40 MG/KG DMH 4 TIMES, 0.05% BBN IN DRINKING WATER FOR 2 WK, 0.1% DHPN IN D, Promoter: NONE USED
  tumour outcome (control, treated, inhibition, significance): 6/14 (43%), 1/12 (8%), 81%, not calculated
